77 sequences from the supplement of paper PMC11208160 can be followed below.

This data set can be described thus: recombinant barcode read abundance after kanamycin selection (control-corrected) (log10(CPM+1)); higher = more efficient recombination; sequences stand for … in AGTGCAGAGAAAATCGGCCAGTTTTCTCTGCCTGCAGTCCGCATGCCGT…AGATTTATGCAGCGGACTGCCTTTCTCCCAAAGTGATAAACCGGACAGTATCATGGACCGGTTTTCCCGGTAATCCGTATTTGCAAGGTTGGTTTCACT; site = the 11-nt target. The procedure, abridged: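 Recombination efficiency draws on barcodes counted at recombinant junctions in a pooled E. coli screen of targets paired with IS621 bridge RNA target-binding loops. The counts were converted to counts per million, averaged and corrected against the chloramphenicol/ampicillin LB agar control, then reported as log10(CPM+1). Selection plates held chloramphenicol/ampicillin/kanamycin with 0.1 mM IPTG, with two replicates per condition.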
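Also: IS621 recombinase and bridge RNA in Escherichia coli cells.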

As to “GAAAGCTCTTGGGTTCTAACCTGTTGCGT (site TCCTATGCTCG)”, the “recombinant barcode read abundance (log10)” value stood at 0.0782. Consider “GAAAGTGCTTGGGTTCTAACCTGTTGCCT (site CAAAGTGCTAG)”, for which the “recombinant barcode read abundance (log10)” value was found to be 0.0857. For “GAAAGTGCTTGGGTTCTAACCTGTTGCCT (site GAAAGTGCTAG)” the value was 1.23. With “GAAATAACTTGGGTTCTAACCTGTTGCGT (site AGCCCTCCTCT)” the figure was 0.169; with “GAAATAACTTGGGTTCTAACCTGTTGCGT (site GAAATAACTAC)”, 0.995; with “GAAATGTCTTGGGTTCTAACCTGTTGCCT (site GAAATGTCTAG)”, 1.75. With “GAAATGTCTTGGGTTCTAACCTGTTGCCT (site GCAATGTCTAG)” the figure was 0.0338. For the sequence “GAAATGTCTTGGGTTCTAACCTGTTGCCT (site GGAATGTCTAG)”, the “recombinant barcode read abundance (log10)” value worked out at 0.262. Take “GAAATGTCTTGGGTTCTAACCTGTTGCCT (site GTAATGTCTAG)”: the “recombinant barcode read abundance (log10)” value was determined as 0.634.

Turning to “GAACCTACTTGGGTTCTAACCTGTTGCGG (site GAACCTACTCC)”, the “recombinant barcode read abundance (log10)” value was 1.77. For “GAACCTACTTGGGTTCTAACCTGTTGCGG (site GAACCTACTTC)” the value was 0.107; for “GAAGACGCTTGGGTTCTAACCTGTTGCCT (site GAAGACGCTAG)”, 1.14; for “GAAGACGCTTGGGTTCTAACCTGTTGCCT (site GAAGCCGCTAG)”, 0.315.

Consider “GAAGACGCTTGGGTTCTAACCTGTTGCCT (site GAAGGCGCTAG)”, for which the “recombinant barcode read abundance (log10)” value was determined as 0.

In the case of “GAAGACGCTTGGGTTCTAACCTGTTGCCT (site GAAGTCGCTAG)”, the “recombinant barcode read abundance (log10)” value was found to be 0.126. For “GAAGGCGCTTGGGTTCTAACCTGTTGCCT (site GAAGACGCTAG)” the value was 0.187; for “GAAGGCGCTTGGGTTCTAACCTGTTGCCT (site GAAGCCGCTAG)”, 0.306. Consider “GAAGGCGCTTGGGTTCTAACCTGTTGCCT (site GAAGGCGCTAG)”, for which the “recombinant barcode read abundance (log10)” value was found to be 1.81. In the case of “GAAGGCGCTTGGGTTCTAACCTGTTGCCT (site GAAGTCGCTAG)”, the “recombinant barcode read abundance (log10)” value came out at 0.0553.

On to “GAAGTCCCTTGGGTTCTAACCTGTTGCCT (site AAAGTCCCTAG)”, for which the “recombinant barcode read abundance (log10)” value worked out at 0.558.

In the case of “GAAGTCCCTTGGGTTCTAACCTGTTGCCT (site CAAGTCCCTAG)”, the “recombinant barcode read abundance (log10)” value stood at 0.848. For “GAAGTCCCTTGGGTTCTAACCTGTTGCCT (site GAAGTCCCTAG)” the value was 1.82; for “GAAGTCCCTTGGGTTCTAACCTGTTGCCT (site TAAGTCCCTAG)”, 1.22; for “GAAGTGCCTTGGGTTCTAACCTGTTGCCT (site GAAGAGCCTAG)”, 0.272.

In the case of “GAAGTGCCTTGGGTTCTAACCTGTTGCCT (site GAAGCGCCTAG)”, the “recombinant barcode read abundance (log10)” value is 0.0713. For the sequence “GAAGTGCCTTGGGTTCTAACCTGTTGCCT (site GAAGGGCCTAG)”, the “recombinant barcode read abundance (log10)” value amounted to 0.195. Consider “GAAGTGCCTTGGGTTCTAACCTGTTGCCT (site GAAGTGCCTAG)”, for which the “recombinant barcode read abundance (log10)” value was determined as 1.92.

Regarding “GAATCCTCTTGGGTTCTAACCTGTTGCCT (site AAATCCTCTAG)”, the “recombinant barcode read abundance (log10)” value is 0.145. With “GAATCCTCTTGGGTTCTAACCTGTTGCCT (site CAATCCTCTAG)” the figure was 0.531; with “GAATCCTCTTGGGTTCTAACCTGTTGCCT (site GAATCCTCTAG)”, 2.06.

Take “GAATCCTCTTGGGTTCTAACCTGTTGCCT (site TAATCCTCTAG)”: the “recombinant barcode read abundance (log10)” value turned out to be 0.483. For “GAATGAGCTTGGGTTCTAACCTGTTGCCT (site CTCACGACTCT)” the value was 0.014. For the sequence “GAATGAGCTTGGGTTCTAACCTGTTGCCT (site GAATGAGCTAG)”, the “recombinant barcode read abundance (log10)” value was found to be 1.43.

“GACAAGTCTTGGGTTCTAACCTGTTGCCT (site GAAACGTCTAG)”: the “recombinant barcode read abundance (log10)” value was 0.173. Take “GACAAGTCTTGGGTTCTAACCTGTTGCCT (site GACAAGTCTAG)”: the “recombinant barcode read abundance (log10)” value worked out at 1.14. With “GACACAACTTGGGTTCTAACCTGTTGCCT (site GACACAACTAG)”, the “recombinant barcode read abundance (log10)” value amounted to 0. With “GACACAACTTGGGTTCTAACCTGTTGCCT (site GACCCATCTAG)” the figure was 0.338; with “GACACGCCTTGGGTTCTAACCTGTTGCAT (site GACACGCCTAA)”, 0.0135; with “GACACGCCTTGGGTTCTAACCTGTTGCAT (site GACACGCCTAC)”, 0.326. With “GACACGCCTTGGGTTCTAACCTGTTGCAT (site GACACGCCTAG)” the figure was 0.976; with “GACACGCCTTGGGTTCTAACCTGTTGCAT (site GACACGCCTAT)”, 0.189; with “GACAGGCCTTGGGTTCTAACCTGTTGCCT (site CACGGGCCTAG)”, 0.041. With “GACAGGCCTTGGGTTCTAACCTGTTGCCT (site GACAGGCCTAG)” the figure was 0.627; with “GACATTCCTTGGGTTCTAACCTGTTGCCT (site AACATTCCTAG)”, 0.375. As to “GACATTCCTTGGGTTCTAACCTGTTGCCT (site CACATTCCTAG)”, the “recombinant barcode read abundance (log10)” value worked out at 0.113. For “GACATTCCTTGGGTTCTAACCTGTTGCCT (site GACATTCCTAG)” the value was 0.131; for “GACATTCCTTGGGTTCTAACCTGTTGCCT (site TACATTCCTAG)”, 0.0381; for “GACCACCCTTGGGTTCTAACCTGTTGCGG (site ATCCACCCTCC)”, 1.14. With “GACCACCCTTGGGTTCTAACCTGTTGCGG (site GACCACCCTCC)” the figure was 2.85; with “GACCCTACTTGGGTTCTAACCTGTTGCCT (site AACCCTACTAG)”, 0.111; with “GACCCTACTTGGGTTCTAACCTGTTGCCT (site CACCCTACTAG)”, 0.375. For the sequence “GACCCTACTTGGGTTCTAACCTGTTGCCT (site GACCCTACTAG)”, the “recombinant barcode read abundance (log10)” value was 0.516. With “GACCCTACTTGGGTTCTAACCTGTTGCCT (site TACCCTACTAG)” the figure was 0.119. With “GACCGGGCTTGGGTTCTAACCTGTTGCCT (site GACCGAGCTAG)” the figure was 0.092.

Turning to “GACCGGGCTTGGGTTCTAACCTGTTGCCT (site GACCGCGCTAG)”, the “recombinant barcode read abundance (log10)” value came to 0.234.

On to “GACCGGGCTTGGGTTCTAACCTGTTGCCT (site GACCGGGCTAG)”, for which the “recombinant barcode read abundance (log10)” value worked out at 0.592. For “GACCGGGCTTGGGTTCTAACCTGTTGCCT (site GACCGTGCTAG)” the value was 0.268; for “GACCGTCCTTGGGTTCTAACCTGTTGCAT (site GACCGTCCTAA)”, 0.167. With “GACCGTCCTTGGGTTCTAACCTGTTGCAT (site GACCGTCCTAC)”, the “recombinant barcode read abundance (log10)” value was found to be 0.479.

Turning to “GACCGTCCTTGGGTTCTAACCTGTTGCAT (site GACCGTCCTAG)”, the “recombinant barcode read abundance (log10)” value stood at 0.54. On to “GACCGTCCTTGGGTTCTAACCTGTTGCAT (site GACCGTCCTAT)”, for which the “recombinant barcode read abundance (log10)” value came out at 1.26. For “GACCGTCCTTGGGTTCTAACCTGTTGCCT (site GACCGTCCTAA)” the value was 0.0128. For “GACCGTCCTTGGGTTCTAACCTGTTGCCT (site GACCGTCCTAC)” the value was 0.1; for “GACCGTCCTTGGGTTCTAACCTGTTGCCT (site GACCGTCCTAG)”, 1. For the sequence “GACCGTCCTTGGGTTCTAACCTGTTGCCT (site GACCGTCCTAT)”, the “recombinant barcode read abundance (log10)” value is 0.263. Consider “GACGGATCTTGGGTTCTAACCTGTTGCAT (site GACGGATCTAA)”, for which the “recombinant barcode read abundance (log10)” value was 0.191. Regarding “GACGGATCTTGGGTTCTAACCTGTTGCAT (site GACGGATCTAC)”, the “recombinant barcode read abundance (log10)” value was determined as 0.269. For “GACGGATCTTGGGTTCTAACCTGTTGCAT (site GACGGATCTAG)” the value was 0.233; for “GACGGATCTTGGGTTCTAACCTGTTGCAT (site GACGGATCTAT)”, 1.09. Turning to “GACGGATCTTGGGTTCTAACCTGTTGCGT (site GACGGATCTAA)”, the “recombinant barcode read abundance (log10)” value came out at 0.0403.

On to “GACGGATCTTGGGTTCTAACCTGTTGCGT (site GACGGATCTAC)”, for which the “recombinant barcode read abundance (log10)” value stood at 0.705. With “GACGGATCTTGGGTTCTAACCTGTTGCGT (site GACGGATCTAG)” the figure was 0.569; with “GACGGATCTTGGGTTCTAACCTGTTGCGT (site GACGGATCTAT)”, 1.35. For “GACGGCACTTGGGTTCTAACCTGTTGCCT (site CGGCTACCTCC)” the value was 0.0844; for “GACGGCACTTGGGTTCTAACCTGTTGCCT (site GACGGCACTAG)”, 0.567. With “GACGTGCCTTGGGTTCTAACCTGTTGCCG (site CTTAGTACTAT)”, the “recombinant barcode read abundance (log10)” value was determined as 0.11. For the sequence “GACGTGCCTTGGGTTCTAACCTGTTGCCG (site GACGTGCCTCG)”, the “recombinant barcode read abundance (log10)” value amounted to 1.77.
